Laboratory results taken from patent US9532997B2, “Compositions and methods for promoting intestinal stem cell function” (Whitehead Institute for Biomedical Research, priority 2012, dated 2017).
“Also recorded” adds a separate entry of the source. One block for each compound: values may come before it.

Legend:
AL and CR-derived crypts = assay: Crypt culture organoid formation with agent added to culture media; assay type: cell-based, mice; conditions: for organoid forming capacity of AL and CR-derived crypts: 100 nM, FIG. 4h
Procedure: Small intestines were removed and the fat/mesentery was dissected away. The intestinal lumen was washed with ice cold PBS (Mg—/Ca—) using a 18 G feeding needle (Roboz FN-7905) until the intestines appeared white/pink. They were then opened longitudinally. The mucous was removed by gently rubbing the intestine between fingers in cold PBS. The intestines were cut into 3 to 5 mm fragments and placed into 50 ml conical tubes that were fill with ice cold 30 ml of PBS (Mg—/Ca—)/EDTA (10 mM). The samples were incubated and shook intermittently on ice for 30 minutes continuously discarding and replacing (at least 3 times) the supernatant. The fragments were then continually resuspended with ice cold 30 ml PBS (Mg—/Ca—)/EDTA (10 mM) and intermittently shook on ice for 10 minutes, discarding the supernatant again for 3 times. The fragments were resuspended again with ice cold 30 ml PBS (Mg—/Ca—)/EDTA (10 mM) and incubated and intermittently shook while waiting on ice for 20 to 40 minutes. The samples were then triturated with a 10 ml pipette 1 to 2 times, and the contents were filtered twice through a 70-μm mesh (BD Falcon) into a 50 ml conical tube to remove villous material and tissue fragments. At this point the suspension was mainly composed of crypts. Crypts were removed from this step for crypt culture experiments and embedded in matrigel with crypt culture media. For ISC isolation, the crypt suspensions were centrifuged for 5 minutes at 250 g (4 C or room temperature). The pellets were gently resuspended in 1.0 ml of undiluted TrypLE Express (Invitrogen)+120 μl of DNase I (10 U/μl, Roche) and transferred to 15 ml conical tubes. The samples were incubated in a 32° C. water bath for 1.25 to 2 minutes, were not titurated, and were then placed on ice. 12 ml of cold SMEM was added to each sample and were gently triturated twice. […]
Isolated crypts were counted and embedded in matrigel (BD Bioscience 356231 growth factor reduced) that contains 1 μM Jagged (Ana-Spec) at 5-10 crypts/μl and cultured in a modified form of medium as described in^3. […]

Bst-1 = biological target: T1, Bst-1 (Mus musculus, UniProt Q64277); assay: Bst-1 siRNA knock-down in CR-derived crypts, organoid formation; assay type: cell-based, mice; conditions: cADPR added to siRNA-treated crypts
T1 construct: endogenous in cells; host or cells: primary small-intestinal crypts from calorie-restricted mice, cultured in matrigel
T1 sequence (Q64277 25-286): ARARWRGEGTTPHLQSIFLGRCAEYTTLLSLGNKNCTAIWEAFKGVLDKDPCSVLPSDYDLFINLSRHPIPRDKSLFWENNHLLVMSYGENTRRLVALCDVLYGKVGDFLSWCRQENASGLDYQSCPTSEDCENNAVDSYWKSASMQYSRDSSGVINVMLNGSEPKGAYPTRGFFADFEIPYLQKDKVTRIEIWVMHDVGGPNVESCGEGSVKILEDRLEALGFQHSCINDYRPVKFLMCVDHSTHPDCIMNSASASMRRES
Procedure: Isolated ISCs or Paneth cells were centrifuged for 5 minutes at 250 g and then resuspended in the appropriate volume of crypt culture medium (500-1000 cells/μl) supplemented with 1×N2 (Invitrogen), 1×B27 (Invitrogen), 100 ng/ml Wnt-3A (R&D), and with additional 500 ng/ml R-Spondin to yield 1 μg/ml final concentration. ISCs were then seeded into matrigel (BD Bioscience 356231 growth factor reduced) containing 1 μM Jagged (Ana-Spec) up to 5,000-10,000 cells/30-50 μl. 30 μl drops of 65% matrigel were plated onto a flat bottom 48-well plate (Corning 3548) and then Paneth cells were added at the same cell count to the top of the matrigel drop. Alternatively, ISCs and Paneth cells were mixed after sorting in a 1:1 ratio, centrifuged, and then seeded into matrigel. The matrigel drops with ISCs and Paneth cells were allowed to solidify for 20 to 30 minutes in a 37° C. incubator. […] Organoid bodies were quantitated on days 3, 7, and 9 days of culture, unless otherwise specified. In subcloning experiments, either individual or cultures of organoids were manually disrupted as indicated in the text on day 7-9 by rigorous tituration and replated into fresh matrigel; these secondary organoid bodies were quantitated on day 18 after initiation of the primary cultures. […]

mTORC1 = biological target: T2, mTORC1 (Mus musculus, UniProt P26883+Q9JLN9); assay: Phospho-S6 (P-S6) immunostain as mTORC1 reporter in intestine / sorted Paneth cells; assay type: in vivo, mice
T2 construct: from tissue; host or cells: mouse small intestine sections, isolated crypts and sorted Paneth cells
Description: Mice were housed in the Unit for Laboratory Animal Medicine at the Whitehead Institute for Biomedical Research. Lgr5-EGFP-IRES-CreERT2 mice (Strain name: B6.129P2-Lgr5tm1(cre/ERT2)Cle/J, Stock Number: 008875) were purchased from Jackson Laboratories. UbiquitinC-CreERT2 mice were obtained from the Jackson Laboratory (Strain Name: B6; 129S-Tg(UBC-cre/ERT2)1Ejb/J, Stock Number: 007001). Rictor floxed mice were generated as described in^27 and backcrossed to C57BL/6 for at least 6 generations. TSC1^loxp/loxp mice were the generous gift of D. Kwiatkowski (Harvard Medical School) and backcrossed to C57BL/6 for at least 6 generations. Rosa26-CreERT2 mice (Rosa26 or R26) were obtained from the Jackson Laboratory (Strain 15 Name: B6.129-Gt(ROSA)26Sor^iml(cre/ERT2)Tyj/J, Stock Number 008463). CR was achieved by providing individual or paired mice a daily portion of a chow diet fortified with vitamins and minerals amounting to 60% of the daily food intake of their ad libitum counterparts^20. All adult mice used in CR experiments were between the ages of 10 to 24 weeks and were sacrificed prior to their daily feeding. Rictor or TSC1 was excised by treatment with tamoxifen suspended in corn or sunflower seed oil (Spectrum) at a concentration of 10 mg/mL, and 200 μl per 25 g of body weight was injected intraperitoneally into mice once daily for 5-7 days. […] Mice were allowed to recover for at least 7 days after the last tamoxifen injection prior to any experiments. In vivo fate mapping in Lgr5-EGFP-IRES-reERT2; Rosa26loxpstoploxp-LacZ compound mice was done with a single injection of tamoxifen given at 200 μl per 25 g. As described previously^28, Rapamycin (LC Laboratories) was administered by intraperitoneal injection for 7 to 28 consecutive doses at 4 mg/kg. It was reconstituted in absolute ethanol at 10 mg/ml and diluted in 5% Tween-80 (Sigma) and 5% PEG-400 (Hampton Research) before injection. The final volume of all injections was 200 μl. Regular insulin (Lilly) was administered at 0.75 U/kg diluted in PBS 20 minutes prior to sacrificing fasted mice. […]

Compound: OCCN(CCO)c1nc(N2CCCCC2)c2nc(N(CCO)CCO)nc(N3CCCCC3)c2n1 [Dipyridamole]
- organoid forming capacity of AL and CR-derived crypts (AL and CR-derived crypts): reduced the organoid forming capacity of AL and CR-derived crypts to a similar level
- organoid forming capacity of AL and CR-derived crypts (AL and CR-derived crypts; listed as dipyridamole): reduced the clonogenicity of CR and AL-derived crypts to same level

Compound: N=c1c2ncn3c2ncn1[C@@H]1O[C@H](COP(=O)(O)OP(=O)(O)OC[C@H]2O[C@@H]3[C@H](O)[C@@H]2O)[C@@H](O)[C@H]1O [cADPR, cyclic ADP ribose]
- organoid forming potential (clonogenicity and size) of AL crypts (AL and CR-derived crypts; 50 μM added to culture media, FIG. 4e): significantly improved the clonogenicity and size of AL-derived organoid bodies; also recorded: increased the organoid forming potential of AL crypts to an extent similar to those of CR crypts
- rescue of function of Bst-1 knock-down CR crypts (Bst-1): sufficient to rescue the function of these crypts

- P-S6 in sorted Paneth cells from fasted mice (mTORC1; 20 minutes after injection, FIG. 2b): induced
- mTORC1 activity (P-S6) in Paneth cells (mTORC1; fasted mice, insulin 0.75 U/kg, FIG. 2a): activates mTORC1 in Paneth cells
Compound: insulin: Regular insulin (Lilly) administered at 0.75 U/kg to fasted mice
